Results from PMC10590419, “Structural and mechanistic insights into the inhibition of respiratory syncytial virus polymerase by a non-nucleoside inhibitor” (Communications Biology, 2023).
Where “and” joins values, the source holds several entries; their conditions need not be identical. Equal values may be shown once.

Assays:
RSV L+P complex [1] = target: T1, RSV L+P complex (Human respiratory syncytial virus A, UniProt P28887); type: biochemical
RSV MTase-CTD protein = RSV MTase-CTD protein (Human respiratory syncytial virus A, UniProt P28887); assay: Methyltransferase filter-binding assay; type: biochemical; conditions: three technical replicates
RSV MTase-CTD protein, sequence (P28887 1755-2165): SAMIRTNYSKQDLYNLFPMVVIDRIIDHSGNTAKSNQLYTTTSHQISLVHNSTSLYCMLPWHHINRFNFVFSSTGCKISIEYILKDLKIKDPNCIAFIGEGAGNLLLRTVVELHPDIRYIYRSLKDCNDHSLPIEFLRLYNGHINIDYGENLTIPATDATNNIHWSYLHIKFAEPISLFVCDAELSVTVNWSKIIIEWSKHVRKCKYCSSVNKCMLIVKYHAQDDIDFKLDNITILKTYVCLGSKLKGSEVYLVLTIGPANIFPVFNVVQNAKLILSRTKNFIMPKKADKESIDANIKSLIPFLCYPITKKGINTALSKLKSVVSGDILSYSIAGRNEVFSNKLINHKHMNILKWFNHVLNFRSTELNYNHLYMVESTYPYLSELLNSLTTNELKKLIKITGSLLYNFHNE

RSV L+P complex [2] = target: T1, RSV L+P complex; assay: Surface plasmon resonance assay; type: binding, Human RSV (strain A2); conditions: SPR, top concentration 1 mM

T1 sequence (P03421 whole entry): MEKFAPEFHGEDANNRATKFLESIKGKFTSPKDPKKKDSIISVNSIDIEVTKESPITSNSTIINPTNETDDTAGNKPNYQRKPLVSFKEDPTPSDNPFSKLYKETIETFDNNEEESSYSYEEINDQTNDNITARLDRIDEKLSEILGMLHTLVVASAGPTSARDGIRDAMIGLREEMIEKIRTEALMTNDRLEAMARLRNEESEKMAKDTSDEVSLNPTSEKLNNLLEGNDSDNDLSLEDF
T1 sequence (P28887 whole entry): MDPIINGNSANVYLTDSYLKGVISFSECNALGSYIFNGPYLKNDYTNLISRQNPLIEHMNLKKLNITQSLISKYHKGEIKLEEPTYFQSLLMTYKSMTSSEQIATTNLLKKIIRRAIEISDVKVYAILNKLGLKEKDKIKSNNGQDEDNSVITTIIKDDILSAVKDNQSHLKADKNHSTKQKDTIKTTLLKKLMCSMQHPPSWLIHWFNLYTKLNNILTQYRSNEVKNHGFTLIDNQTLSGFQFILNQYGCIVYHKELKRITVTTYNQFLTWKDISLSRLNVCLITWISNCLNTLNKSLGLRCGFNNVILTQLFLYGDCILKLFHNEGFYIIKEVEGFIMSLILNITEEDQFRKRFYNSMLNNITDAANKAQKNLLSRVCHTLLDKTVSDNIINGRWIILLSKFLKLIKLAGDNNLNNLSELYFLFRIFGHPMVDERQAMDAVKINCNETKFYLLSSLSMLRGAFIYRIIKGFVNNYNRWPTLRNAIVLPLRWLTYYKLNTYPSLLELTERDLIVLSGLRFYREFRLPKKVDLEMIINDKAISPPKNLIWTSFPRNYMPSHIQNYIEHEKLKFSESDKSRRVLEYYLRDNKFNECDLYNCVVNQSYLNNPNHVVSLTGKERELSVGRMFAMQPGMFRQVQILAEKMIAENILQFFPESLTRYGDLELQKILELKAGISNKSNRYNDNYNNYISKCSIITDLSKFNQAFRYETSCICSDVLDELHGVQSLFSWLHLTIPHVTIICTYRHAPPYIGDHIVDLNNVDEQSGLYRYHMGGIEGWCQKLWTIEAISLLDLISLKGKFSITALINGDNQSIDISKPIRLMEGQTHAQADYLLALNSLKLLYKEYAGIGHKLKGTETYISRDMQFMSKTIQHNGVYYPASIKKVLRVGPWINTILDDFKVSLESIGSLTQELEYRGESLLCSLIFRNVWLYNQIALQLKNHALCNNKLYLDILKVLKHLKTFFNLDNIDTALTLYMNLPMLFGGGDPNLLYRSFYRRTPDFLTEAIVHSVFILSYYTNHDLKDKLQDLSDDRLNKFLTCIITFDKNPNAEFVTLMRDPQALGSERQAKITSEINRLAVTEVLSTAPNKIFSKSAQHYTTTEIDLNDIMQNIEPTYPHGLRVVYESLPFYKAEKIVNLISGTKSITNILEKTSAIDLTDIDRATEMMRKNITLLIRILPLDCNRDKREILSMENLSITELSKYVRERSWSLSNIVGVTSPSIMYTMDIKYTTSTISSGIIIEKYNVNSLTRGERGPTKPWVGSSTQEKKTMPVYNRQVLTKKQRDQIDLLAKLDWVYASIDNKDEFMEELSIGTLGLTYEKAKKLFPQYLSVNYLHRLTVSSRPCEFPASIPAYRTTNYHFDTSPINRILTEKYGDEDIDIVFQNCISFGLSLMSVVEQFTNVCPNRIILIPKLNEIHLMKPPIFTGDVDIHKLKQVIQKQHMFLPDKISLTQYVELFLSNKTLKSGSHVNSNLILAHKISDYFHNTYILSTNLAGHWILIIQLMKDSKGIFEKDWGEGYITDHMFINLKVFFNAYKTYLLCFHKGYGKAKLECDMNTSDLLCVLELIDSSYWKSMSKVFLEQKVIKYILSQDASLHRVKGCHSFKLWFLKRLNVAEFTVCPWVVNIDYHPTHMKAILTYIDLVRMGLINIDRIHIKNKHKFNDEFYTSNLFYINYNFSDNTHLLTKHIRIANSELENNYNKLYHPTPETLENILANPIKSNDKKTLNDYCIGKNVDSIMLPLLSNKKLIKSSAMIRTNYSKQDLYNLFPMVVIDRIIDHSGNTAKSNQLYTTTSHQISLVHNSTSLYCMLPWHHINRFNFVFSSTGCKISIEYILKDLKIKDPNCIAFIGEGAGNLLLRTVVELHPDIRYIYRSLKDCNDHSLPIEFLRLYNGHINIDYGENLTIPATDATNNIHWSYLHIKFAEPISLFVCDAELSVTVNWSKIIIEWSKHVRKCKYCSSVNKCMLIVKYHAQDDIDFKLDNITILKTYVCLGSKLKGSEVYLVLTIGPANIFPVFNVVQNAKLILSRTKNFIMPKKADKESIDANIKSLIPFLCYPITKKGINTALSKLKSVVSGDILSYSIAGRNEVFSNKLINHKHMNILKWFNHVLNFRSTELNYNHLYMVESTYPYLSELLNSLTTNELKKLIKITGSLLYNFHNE

Structure (SMILES) | MTase activity, RNA+compound+RSV L+P, CPM (RSV L+P complex [1]) | MTase activity, RNA+compound+RSV MTase-CTD, CPM (RSV MTase-CTD protein; 50 uM) | MTase activity, RNA+compound+RSV MTase-CTD, CPM (RSV MTase-CTD protein; 200 uM) | binding to purified RSV L+P (in words) (RSV L+P complex [2])
O=C(NC1CC1)c1cc2c(s1)-c1ccccc1N(C(=O)c1ccc(NC(=O)c3cccnc3N3CCC4(CC3)COC4)cc1)CC2 [AZ-27, reference compound] | 10786 CPM and 11483 CPM and 10556 CPM and 15234 CPM and 15171 CPM and 17548 CPM | 28343 CPM and 26589 CPM and 27119 CPM | 32944 CPM and 32511 CPM and 35155 CPM | –
Nc1nc2c(ncn2[C@@H]2O[C@H](COP(=O)(O)OP(=O)(O)O)[C@@H](O)[C@H]2O)c(=O)[nH]1 [GDP, guanosine diphosphate] | – | – | – | did not bind
